Measurements as given in US9714244B2, “Substituted pyrido[4,3-d]pyrimidines as Wee-1 inhibitors” (ALMAC DISCOVERY LIMITED, priority 2013, dated 2017).

Columns and labels:
[1] = test system: phospho-cdc2 (Tyr15) in HT-29 cells; assay: Effect on phosphorylation of cdc2 at Tyr15 in HT-29 cells (PathScan ELISA); assay type: cell-based; details: Homo sapiens, HT-29, 8 h; HT29 cells, eight hours incubation; read-out: HT29 pCDC2 activity
[2] = CLint estimates using human liver microsomes; assay type: in vitro ADME; details: pH 7.4, read-out: HLM activity (HLM CLint)
AKT1 (PKB alpha) = AKT1 (PKB alpha) (Homo sapiens (Human), UniProt P31749); assay: SelectScreen Kinase Profiling: AKT1; assay type: biochemical; details: 300-350 nM
Text: (§1) Table 2 below highlights the selectivity of a representative compound of the invention against a panel of 50 kinases (assessed using the Invitrogen SelectScreen® Kinase Profiling Service).

DYRK3 = DYRK3 (Homo sapiens (Human), UniProt O43781); assay: SelectScreen Kinase Profiling: DYRK3; assay type: biochemical; details: 300-350 nM
Text: as §1

ERBB2 (HER2) = ERBB2 (HER2) (Homo sapiens (Human), UniProt P04626); assay: SelectScreen Kinase Profiling: ERBB2; assay type: biochemical; details: 300-350 nM
Text: as §1

FLT3 = FLT3 (Homo sapiens (Human), UniProt P36888); assay: SelectScreen Kinase Profiling: FLT3; assay type: biochemical; details: 300-350 nM
Text: as §1

GSK3B (GSK3 beta) = GSK3B (GSK3 beta) (Homo sapiens (Human), UniProt P49841); assay: SelectScreen Kinase Profiling: GSK3B; assay type: biochemical; details: 300-350 nM
Text: as §1

IRAK4 = IRAK4 (Homo sapiens (Human), UniProt Q9NWZ3); assay: SelectScreen Kinase Profiling: IRAK4; assay type: biochemical; details: 300-350 nM
Text: as §1

KIT = KIT (Homo sapiens (Human), UniProt P10721); assay: SelectScreen Kinase Profiling: KIT; assay type: biochemical; details: 300-350 nM
Text: as §1

MAP2K1 (MEK1) = MAP2K1 (MEK1) (Homo sapiens (Human), UniProt Q02750); assay: SelectScreen Kinase Profiling: MAP2K1; assay type: biochemical; details: 300-350 nM
Text: as §1

MAPK14 (p38 alpha) = MAPK14 (p38 alpha) (Homo sapiens (Human), UniProt Q16539); assay: SelectScreen Kinase Profiling: MAPK14; assay type: biochemical; details: 300-350 nM
Text: as §1

MAPKAPK2 = MAPKAPK2 (Homo sapiens (Human), UniProt P49137); assay: SelectScreen Kinase Profiling: MAPKAPK2; assay type: biochemical; details: 300-350 nM
Text: as §1

NTRK1 (TRKA) = NTRK1 (TRKA) (Homo sapiens (Human), UniProt P04629); assay: SelectScreen Kinase Profiling: NTRK1; assay type: biochemical; details: 300-350 nM
Text: as §1

PIM1 = PIM1 (Homo sapiens (Human), UniProt P11309); assay: SelectScreen Kinase Profiling: PIM1; assay type: biochemical; details: 300-350 nM
Text: as §1

PRKCB1 (PKC beta I) = PRKCB1 (PKC beta I) (Homo sapiens (Human), UniProt P05771); assay: SelectScreen Kinase Profiling: PRKCB1; assay type: biochemical; details: 300-350 nM
Text: as §1

RET = RET (Homo sapiens (Human), UniProt P07949); assay: SelectScreen Kinase Profiling: RET; assay type: biochemical; details: 300-350 nM
Text: as §1

RPS6KA3 (RSK2) = RPS6KA3 (RSK2) (Homo sapiens (Human), UniProt P51812); assay: SelectScreen Kinase Profiling: RPS6KA3; assay type: biochemical; details: 300-350 nM

Sequence of PRKCB1 (PKC beta I) (P05771 whole entry): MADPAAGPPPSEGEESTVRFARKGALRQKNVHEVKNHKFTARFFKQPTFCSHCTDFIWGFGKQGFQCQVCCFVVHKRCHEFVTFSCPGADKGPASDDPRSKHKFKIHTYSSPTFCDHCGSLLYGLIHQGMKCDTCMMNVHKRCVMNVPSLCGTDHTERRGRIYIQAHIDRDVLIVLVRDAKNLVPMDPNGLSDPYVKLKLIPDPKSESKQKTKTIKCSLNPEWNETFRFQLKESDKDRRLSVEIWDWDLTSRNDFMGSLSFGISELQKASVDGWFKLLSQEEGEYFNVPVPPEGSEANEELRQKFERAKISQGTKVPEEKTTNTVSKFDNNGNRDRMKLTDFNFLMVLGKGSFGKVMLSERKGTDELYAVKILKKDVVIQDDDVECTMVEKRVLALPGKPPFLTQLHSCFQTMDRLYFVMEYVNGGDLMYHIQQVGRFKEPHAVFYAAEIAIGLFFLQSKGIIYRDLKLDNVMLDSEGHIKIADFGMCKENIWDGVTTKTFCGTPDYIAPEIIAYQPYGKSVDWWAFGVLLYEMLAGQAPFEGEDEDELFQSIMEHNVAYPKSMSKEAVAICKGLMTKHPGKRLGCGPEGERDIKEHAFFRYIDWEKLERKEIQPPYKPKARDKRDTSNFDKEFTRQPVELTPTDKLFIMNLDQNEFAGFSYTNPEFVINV
Sequence of MAPK14 (p38 alpha) (Q16539 whole entry): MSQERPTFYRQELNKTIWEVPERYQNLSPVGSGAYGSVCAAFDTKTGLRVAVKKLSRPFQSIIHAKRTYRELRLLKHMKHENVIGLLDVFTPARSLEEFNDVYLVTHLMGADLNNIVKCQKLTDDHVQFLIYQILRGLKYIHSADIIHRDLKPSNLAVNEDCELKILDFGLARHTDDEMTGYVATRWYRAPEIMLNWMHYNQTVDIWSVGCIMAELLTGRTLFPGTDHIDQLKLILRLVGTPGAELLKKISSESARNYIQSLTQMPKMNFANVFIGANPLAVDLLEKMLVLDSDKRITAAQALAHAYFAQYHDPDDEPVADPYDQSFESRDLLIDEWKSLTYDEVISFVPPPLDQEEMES
Sequence of FLT3 (P36888 27-993): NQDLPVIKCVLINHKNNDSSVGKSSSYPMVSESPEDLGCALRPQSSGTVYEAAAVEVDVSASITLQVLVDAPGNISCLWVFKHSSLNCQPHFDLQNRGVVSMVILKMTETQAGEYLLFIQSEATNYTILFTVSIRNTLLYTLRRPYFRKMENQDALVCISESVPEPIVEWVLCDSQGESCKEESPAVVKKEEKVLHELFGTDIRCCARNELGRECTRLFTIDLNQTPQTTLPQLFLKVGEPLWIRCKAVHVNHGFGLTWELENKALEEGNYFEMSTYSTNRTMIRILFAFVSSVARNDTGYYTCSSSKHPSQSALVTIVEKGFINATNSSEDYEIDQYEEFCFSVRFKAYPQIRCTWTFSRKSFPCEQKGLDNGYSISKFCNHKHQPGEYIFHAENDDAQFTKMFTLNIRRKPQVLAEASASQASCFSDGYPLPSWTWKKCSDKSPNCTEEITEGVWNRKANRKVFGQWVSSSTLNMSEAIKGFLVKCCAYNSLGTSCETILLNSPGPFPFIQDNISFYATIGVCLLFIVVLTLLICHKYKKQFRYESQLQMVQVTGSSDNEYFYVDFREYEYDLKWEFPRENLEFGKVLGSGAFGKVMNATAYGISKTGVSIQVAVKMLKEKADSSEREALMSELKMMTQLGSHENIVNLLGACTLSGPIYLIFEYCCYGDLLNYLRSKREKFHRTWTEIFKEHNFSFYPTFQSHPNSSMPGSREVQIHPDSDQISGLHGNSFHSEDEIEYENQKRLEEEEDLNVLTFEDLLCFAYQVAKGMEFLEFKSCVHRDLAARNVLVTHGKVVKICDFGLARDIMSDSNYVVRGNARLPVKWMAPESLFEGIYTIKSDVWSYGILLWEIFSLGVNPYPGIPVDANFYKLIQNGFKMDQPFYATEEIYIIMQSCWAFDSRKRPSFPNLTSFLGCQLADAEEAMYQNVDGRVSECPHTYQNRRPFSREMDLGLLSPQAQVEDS
Sequence of NTRK1 (TRKA) (P04629 33-796): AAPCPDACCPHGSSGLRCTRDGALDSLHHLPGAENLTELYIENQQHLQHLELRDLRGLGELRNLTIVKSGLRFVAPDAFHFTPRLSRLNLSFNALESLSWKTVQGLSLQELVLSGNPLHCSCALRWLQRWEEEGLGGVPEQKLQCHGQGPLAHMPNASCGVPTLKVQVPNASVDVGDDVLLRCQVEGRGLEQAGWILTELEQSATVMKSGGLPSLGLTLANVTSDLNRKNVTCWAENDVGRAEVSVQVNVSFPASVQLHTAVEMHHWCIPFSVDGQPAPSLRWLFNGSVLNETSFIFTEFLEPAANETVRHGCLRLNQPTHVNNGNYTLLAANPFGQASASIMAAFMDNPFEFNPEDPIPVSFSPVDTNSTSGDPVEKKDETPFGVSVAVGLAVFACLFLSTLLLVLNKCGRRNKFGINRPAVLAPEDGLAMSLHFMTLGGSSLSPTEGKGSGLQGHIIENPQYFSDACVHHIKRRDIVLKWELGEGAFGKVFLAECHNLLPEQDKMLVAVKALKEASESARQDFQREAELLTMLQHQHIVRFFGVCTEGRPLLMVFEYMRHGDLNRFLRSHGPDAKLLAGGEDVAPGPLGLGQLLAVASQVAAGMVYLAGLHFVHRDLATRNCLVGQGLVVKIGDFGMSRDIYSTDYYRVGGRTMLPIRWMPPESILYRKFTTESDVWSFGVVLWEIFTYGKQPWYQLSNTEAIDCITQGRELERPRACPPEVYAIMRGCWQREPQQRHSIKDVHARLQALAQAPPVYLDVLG
Sequence of AKT1 (PKB alpha) (P31749 whole entry): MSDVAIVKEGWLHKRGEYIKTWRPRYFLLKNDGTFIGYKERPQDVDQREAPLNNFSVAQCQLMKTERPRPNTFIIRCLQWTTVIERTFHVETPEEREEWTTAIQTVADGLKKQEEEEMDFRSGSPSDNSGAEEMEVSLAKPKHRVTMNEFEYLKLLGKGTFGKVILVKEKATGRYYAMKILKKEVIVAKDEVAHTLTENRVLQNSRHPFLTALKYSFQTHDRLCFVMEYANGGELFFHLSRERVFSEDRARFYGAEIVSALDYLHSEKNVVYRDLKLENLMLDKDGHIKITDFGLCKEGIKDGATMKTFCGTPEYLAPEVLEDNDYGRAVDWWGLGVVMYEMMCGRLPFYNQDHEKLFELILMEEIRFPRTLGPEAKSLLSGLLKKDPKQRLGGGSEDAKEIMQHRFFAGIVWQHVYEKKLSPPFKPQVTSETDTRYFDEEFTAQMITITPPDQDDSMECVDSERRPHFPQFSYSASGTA
Sequence of RET (P07949 29-1114): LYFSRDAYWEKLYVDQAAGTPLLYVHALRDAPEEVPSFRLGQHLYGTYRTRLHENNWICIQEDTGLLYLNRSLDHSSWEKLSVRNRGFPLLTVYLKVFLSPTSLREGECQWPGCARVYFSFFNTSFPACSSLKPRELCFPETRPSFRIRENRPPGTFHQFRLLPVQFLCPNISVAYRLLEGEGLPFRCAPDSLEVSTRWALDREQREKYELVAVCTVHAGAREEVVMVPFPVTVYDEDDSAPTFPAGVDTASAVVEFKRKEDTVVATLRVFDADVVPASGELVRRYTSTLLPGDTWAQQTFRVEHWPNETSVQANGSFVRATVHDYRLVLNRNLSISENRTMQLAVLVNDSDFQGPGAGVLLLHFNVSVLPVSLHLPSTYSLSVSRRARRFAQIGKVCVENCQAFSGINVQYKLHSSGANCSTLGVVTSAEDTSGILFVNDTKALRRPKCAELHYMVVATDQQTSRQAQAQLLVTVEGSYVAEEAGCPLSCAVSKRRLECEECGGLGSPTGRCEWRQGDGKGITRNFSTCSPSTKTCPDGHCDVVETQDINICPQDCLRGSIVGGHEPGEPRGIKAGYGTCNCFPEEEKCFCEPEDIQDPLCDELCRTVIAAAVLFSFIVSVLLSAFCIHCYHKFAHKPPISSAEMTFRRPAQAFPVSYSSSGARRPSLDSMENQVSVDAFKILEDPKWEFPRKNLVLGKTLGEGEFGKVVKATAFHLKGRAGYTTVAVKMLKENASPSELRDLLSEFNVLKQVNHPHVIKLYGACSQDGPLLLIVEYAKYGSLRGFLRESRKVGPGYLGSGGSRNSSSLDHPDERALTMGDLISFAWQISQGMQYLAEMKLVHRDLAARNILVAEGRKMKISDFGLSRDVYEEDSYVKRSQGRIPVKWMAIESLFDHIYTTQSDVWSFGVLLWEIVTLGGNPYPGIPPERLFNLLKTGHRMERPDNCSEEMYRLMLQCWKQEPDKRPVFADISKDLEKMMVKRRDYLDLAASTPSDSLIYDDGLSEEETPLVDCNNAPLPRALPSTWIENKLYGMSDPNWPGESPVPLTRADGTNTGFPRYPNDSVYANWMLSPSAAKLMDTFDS
Sequence of MAP2K1 (MEK1) (Q02750 whole entry): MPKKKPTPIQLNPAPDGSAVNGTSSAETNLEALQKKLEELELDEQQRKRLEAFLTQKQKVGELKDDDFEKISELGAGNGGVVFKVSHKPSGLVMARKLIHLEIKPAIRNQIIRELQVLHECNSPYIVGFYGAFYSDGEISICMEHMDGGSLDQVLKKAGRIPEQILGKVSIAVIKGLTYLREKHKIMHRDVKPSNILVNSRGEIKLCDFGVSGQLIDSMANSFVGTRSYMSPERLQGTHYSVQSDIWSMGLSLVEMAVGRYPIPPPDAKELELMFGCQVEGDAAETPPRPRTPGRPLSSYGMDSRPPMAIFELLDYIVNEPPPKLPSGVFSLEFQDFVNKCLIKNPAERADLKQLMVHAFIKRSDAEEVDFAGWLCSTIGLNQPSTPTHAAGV
Sequence of PIM1 (P11309 whole entry): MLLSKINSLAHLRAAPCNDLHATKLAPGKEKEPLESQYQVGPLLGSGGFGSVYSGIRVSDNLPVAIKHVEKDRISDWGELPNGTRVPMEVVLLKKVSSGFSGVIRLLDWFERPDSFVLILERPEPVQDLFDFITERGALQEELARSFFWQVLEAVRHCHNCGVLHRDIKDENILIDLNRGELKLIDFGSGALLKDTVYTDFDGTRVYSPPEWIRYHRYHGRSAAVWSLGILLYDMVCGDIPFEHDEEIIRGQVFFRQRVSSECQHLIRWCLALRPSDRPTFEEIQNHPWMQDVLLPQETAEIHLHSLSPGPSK

O=c1c2cnc(Nc3ccc(N4CCNCC4)cc3)nc2ccn1-c1c(Cl)cccc1Cl [Example 1, 6-(2,6-Dichlorophenyl)-2-((4-(piperazin-1-yl)phenyl)amino)pyrido[4,3-d]pyrimidin-5(6H)-one]
≥ 1000 nM: IC50 [1]
≤ 20 µL/min/mg: microsomal CLint at 1 μM [2]
− (Inhibition <75% @ 300-350 nM): Inhibition AKT1 (PKB alpha) (AKT1 (PKB alpha)) | Inhibition DYRK3 (DYRK3) | Inhibition ERBB2 (HER2) (ERBB2 (HER2)) | Inhibition FLT3 (FLT3) | Inhibition GSK3B (GSK3 beta) (GSK3B (GSK3 beta)) | Inhibition IRAK4 (IRAK4) | Inhibition KIT (KIT) | Inhibition MAP2K1 (MEK1) (MAP2K1 (MEK1)) | Inhibition MAPK14 (p38 alpha) (MAPK14 (p38 alpha)) | Inhibition MAPKAPK2 (MAPKAPK2) | Inhibition NTRK1 (TRKA) (NTRK1 (TRKA)) | Inhibition PIM1 (PIM1) | Inhibition PRKCB1 (PKC beta I) (PRKCB1 (PKC beta I)) | Inhibition RET (RET) | Inhibition RPS6KA3 (RSK2) (RPS6KA3 (RSK2))
